Reference: patent US9540389B2, “Antimicrobial potentiators” (priority 2013, dated 2017)

What was measured:
Experiment in all cases: MIC assay (microbroth dilution) ± 25 μM EPI
Format in all cases: cell-based
[1] = test system: Enterobacter aerogenes ATCC 13048
Method in brief: (§1)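 MICs were determined by CLSI M7-A7 microbroth dilution in LB instead of MHB, with 2% final DMSO, in triplicate, reported as geometric mean. Checkerboard assays combined MBX2319 with antibacterial agent under the same conditions; the Shigella assay used 25 μM EPI. E. coli AB1157 carried P1-transduced Keio deletions.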

Escherichia coli 331 = conditions: E. coli 331
Method in brief: (§2)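 Knockout alleles from Keio strains were moved into AB1157 by P1 transduction. MICs were determined by CLSI M7-A7 microbroth dilution, with LB replacing MHB and 2% final DMSO. Checkerboard combinations used the same modifications, and values are geometric means of triplicates.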

Escherichia coli AB1157 = conditions: Escherichia coli, AB1157, read-out: MICs (μg/ml) ± EPIs: None
Method in brief: as §1

[2] = test system: Escherichia coli ATCC 25922
Method in brief: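 Microdilution MICs (CLSI M7-A7 basis) were read in LB rather than MHB, the DMSO content being fixed at 2%. Each was done in triplicate and summarised as a geometric mean.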

[3] = test system: Klebsiella pneumoniae ATCC 700603
Method in brief: (§3)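 CLSI M7-A7 broth microdilution, modified: LB medium, DMSO 2% final. Triplicate runs, geometric mean reported. Checkerboard drug/EPI grids set up identically. Deletion strains: Keio mutations P1-transduced into AB1157.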

[4] = test system: Salmonella enterica ATCC 14028
Method in brief: as §3

[5] = test system: Shigella flexneri ATCC 12022
Method in brief: as §2

[6] = MIC no cmpd/MIC + 25 μM MBX2319

CCN1CCN(C(=O)N[C@@H](C(=O)N[C@@H]2C(=O)N3[C@@H]2SC(C)(C)[C@@H]3C(=O)O)c2ccccc2)C(=O)C1=O [Piperacillin, piperacillin]
MIC (μg/ml) ± EPI: MBX2319 ([1]; + 25 μM MBX2319): 1.4 µg/mL
MIC (μg/ml) ± EPI: PAβN ([1]; + 25 μM PAβN): 16 µg/mL
MIC ([1]; Klebsiella aerogenes, ATCC13048, no EPI, read-out: MIC (μg/ml) ± EPI: None): 4 µg/mL
MIC Ratio MBX2319 [1, 6]: 2.8
MIC Ratio PAβN ([1]; MIC no cmpd/MIC + 25 μM PAβN): 0.2
MIC (μg/ml) ± EPI: MBX2319 (Escherichia coli 331; + 25 μM MBX2319): 0.707 µg/mL
MIC (μg/ml) ± EPI: PAβN (Escherichia coli 331; + 25 μM PAβN): 4 µg/mL
MIC Ratio MBX2319 (Escherichia coli 331; [6]): 5.6
MIC Ratio PAβN (Escherichia coli 331; MIC no cmpd/MIC + 25 μM PAβN): 1
MIC (Escherichia coli 331; Escherichia coli, no EPI, read-out: MIC (μg/ml) ± EPI: None): 4 µg/mL
MIC (Escherichia coli AB1157): 4 µg/mL
MIC (μg/ml) ± EPI: MBX2319 ([2]; E. coli ATCC 25922, + 25 μM MBX2319): 1.68 µg/mL
MIC (μg/ml) ± EPI: PAβN ([2]; E. coli ATCC 25922, + 25 μM PAβN): 4 µg/mL
MIC Ratio MBX2319 ([2]; E. coli ATCC 25922, MIC no cmpd/MIC + 25 μM MBX2319): 1.7
MIC Ratio PAβN ([2]; E. coli ATCC 25922, MIC no cmpd/MIC + 25 μM PAβN): 0.7
MIC ([2]; Escherichia coli, ATCC25922, read-out: MIC (μg/ml) ± EPI: None): 2.83 µg/mL
MIC (μg/ml) ± EPI: MBX2319 ([3]; + 25 μM MBX2319): 113 µg/mL
MIC (μg/ml) ± EPI: PAβN ([3]; + 25 μM PAβN): 113 µg/mL
MIC ([3]; ATCC700603, no EPI, read-out: MIC (μg/ml) ± EPI: None): 113 µg/mL
MIC Ratio MBX2319 [3, 6]: 1
MIC Ratio PAβN ([3]; MIC no cmpd/MIC + 25 μM PAβN): 1
MIC (μg/ml) ± EPI: MBX2319 ([4]; + 25 μM MBX2319): 0.5 µg/mL
MIC (μg/ml) ± EPI: PAβN ([4]; + 25 μM PAβN): 4 µg/mL
MIC ([4]; ATCC14028, no EPI, read-out: MIC (μg/ml) ± EPI: None): 2.4 µg/mL
MIC Ratio MBX2319 [4, 6]: 4.8
MIC Ratio PAβN ([4]; MIC no cmpd/MIC + 25 μM PAβN): 0.6
MIC (μg/ml) ± EPI: MBX2319 ([5]; Shigella flexneri ATCC 12022, + 25 μM MBX2319): 0.25 µg/mL
MIC (μg/ml) ± EPI: PAβN ([5]; Shigella flexneri ATCC 12022, + 25 μM PAβN): 1 µg/mL
MIC Ratio MBX2319 ([5]; Shigella flexneri ATCC 12022, MIC no cmpd/MIC + 25 μM MBX2319): 4
MIC Ratio PAβN ([5]; Shigella flexneri ATCC 12022, MIC no cmpd/MIC + 25 μM PAβN): 1
MIC ([5]; Shigella flexneri, ATCC12022, read-out: MIC (μg/ml) ± EPI: None): 1 µg/mL
